In paper PMC3470872 (Biochemical pharmacology, 2012):
Where “and” joins values, the source holds several entries; their conditions need not be identical. Identical values can stand only once.

How the values were obtained:
[1] = test system: HepG2 cells; assay: Inhibition and recovery of esterase activity in intact HepG2 cells; assay type: cell-based
[2] = test system: MAGL; conditions: mouse brain membrane proteome; cited from earlier work
[3] = molecular target: T1, recombinant human CES2 (Homo sapiens, UniProt O00748); assay: Inactivation kinetics of recombinant CES2, pNPV hydrolysis progress curves; assay type: biochemical; conditions: CES1 and MAGL versus CES2
T1 sequence (O00748 27-559): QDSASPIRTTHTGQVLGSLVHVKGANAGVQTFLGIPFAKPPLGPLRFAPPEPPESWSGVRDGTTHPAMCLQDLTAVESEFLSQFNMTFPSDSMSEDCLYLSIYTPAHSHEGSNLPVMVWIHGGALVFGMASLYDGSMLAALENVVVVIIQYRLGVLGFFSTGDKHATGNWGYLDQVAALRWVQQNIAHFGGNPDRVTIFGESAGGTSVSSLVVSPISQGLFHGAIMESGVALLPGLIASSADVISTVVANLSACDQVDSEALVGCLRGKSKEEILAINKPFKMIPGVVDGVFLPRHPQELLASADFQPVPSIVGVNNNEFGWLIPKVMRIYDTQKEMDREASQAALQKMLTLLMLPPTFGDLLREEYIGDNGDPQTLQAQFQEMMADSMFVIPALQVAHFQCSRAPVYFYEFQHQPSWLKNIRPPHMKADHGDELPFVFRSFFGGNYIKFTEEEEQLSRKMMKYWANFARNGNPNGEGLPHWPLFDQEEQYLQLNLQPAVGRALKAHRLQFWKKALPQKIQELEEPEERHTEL

[4] = molecular target: T2, CES1 (Homo sapiens, UniProt P23141); assay type: biochemical
T2 sequence (P23141 18-567): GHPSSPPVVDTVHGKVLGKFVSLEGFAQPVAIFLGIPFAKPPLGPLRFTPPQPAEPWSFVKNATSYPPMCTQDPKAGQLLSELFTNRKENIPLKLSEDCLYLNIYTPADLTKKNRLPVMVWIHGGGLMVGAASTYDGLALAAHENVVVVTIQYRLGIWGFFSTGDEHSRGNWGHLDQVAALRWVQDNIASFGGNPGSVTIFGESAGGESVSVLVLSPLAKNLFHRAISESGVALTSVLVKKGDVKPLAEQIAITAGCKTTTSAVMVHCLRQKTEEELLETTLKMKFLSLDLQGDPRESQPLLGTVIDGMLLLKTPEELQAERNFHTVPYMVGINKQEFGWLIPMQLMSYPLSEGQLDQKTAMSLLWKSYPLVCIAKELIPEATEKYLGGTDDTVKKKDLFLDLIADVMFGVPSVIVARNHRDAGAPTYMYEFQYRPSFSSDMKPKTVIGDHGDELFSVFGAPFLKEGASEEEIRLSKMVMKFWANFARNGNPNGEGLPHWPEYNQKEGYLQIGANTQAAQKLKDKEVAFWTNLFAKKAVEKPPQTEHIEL

[5] = molecular target: T2, CES1; assay: Esterase activity of HepG2 cell lysate in presence of S-3030; assay type: biochemical
[6] = test system: FAAH; conditions: rat brain membranes; cited from earlier work
[7] = molecular target: rat ortholog of CES1; conditions: cited from earlier work
[8] = molecular target: T2, CES1; assay: Inactivation kinetics of recombinant CES1, pNPV hydrolysis progress curves; assay type: biochemical; conditions: comparison with oxon values of ref 24

Molecule: O=C(Oc1ccc([N+](=O)[O-])cc1)N1CCC(C(O)(c2ccc3c(c2)OCO3)c2ccc3c(c2)OCO3)CC1 [JZL184]
- esterase activity remained depressed ([1]; 10 μM, 30 min treatment, over 48 hr after treatment): ~ 90%
- inhibition of esterase activity ([1]; 10 μM, 30 min treatment, time 0, pNPV substrate): ≥ 90%
- bimolecular rate constants for CES1 and MAGL greater than for CES2 [3]: 17-38 fold
- reactivation rate slower than CES1 inhibited by URB597 [4]: 4.5 x
- t1/2 (half life of reactivation) [4]: 49 ± 15 h and 49 h and 49 ± 15^b h

Molecule: O=C1C(=O)c2sccc2-c2ccsc21 [S-3030, Thieno[3,2-e][1]benzothiophene-4,5-dione]
- esterase activity sensitive to S-3030-mediated inhibition ([5]; activity recovered by 48 hr following URB597 treatment (data not shown)): 74%
- share of esterase activity accounted for by CES1 (S-3030 sensitive) ([5]; untreated HepG2 cell lysate, 10 μM S-3030, pNPV substrate): 71.5±2.1%

Molecule: NC(=O)c1cccc(-c2cccc(OC(=O)NC3CCCCC3)c2)c1 [URB597]
- esterase activity, % of the control activity ([1]; 10 μM, 30 min treatment, recovery over 48 hr): 50%
- inhibition at 10 µM ([1]; Homo sapiens, HepG2, 0.5 h, read-out: inhibition of esterase activity): ≥ 90%
- IC50 [6]: 4.6 nM
- t1/2 (half life of reactivation) [4]: 11 h and 11 ± 4^a h

Molecule: CNC(=O)Oc1cccc2ccccc12 [carbaryl]
- ki (bimolecular rate constant) [7]: 856 M⁻¹ s⁻¹

Molecule: chlorpyrifos oxon
- more reactive toward CES1 than JZL184 [8]: 500 x
